Measurements reported in PMC10461224, “Development of an Affinity-Based Probe to Profile Endogenous Human Adenosine A3 Receptor Expression” (Journal of Medicinal Chemistry, 2023).
Marks after values point to notes of the source that are not given here. One block for each molecule: values may come before it.

Assays:
hA3AR [1] = biological target: T1, hA3AR (Homo sapiens, UniProt P0DMS8); test: Wash-out assay, [3H]PSB-11 binding after washing; conditions: 1 μM compound, pre-incubated 2 h at 25 °C, washed 4 times
T1 construct: expressed in transfected cells; host or cells: CHO cells (CHOhA3AR), gift of Prof; K.N. Klotz, University of Würzburg; used as membrane fractions or live cells
T1 sequence (P0DMS8 1-318): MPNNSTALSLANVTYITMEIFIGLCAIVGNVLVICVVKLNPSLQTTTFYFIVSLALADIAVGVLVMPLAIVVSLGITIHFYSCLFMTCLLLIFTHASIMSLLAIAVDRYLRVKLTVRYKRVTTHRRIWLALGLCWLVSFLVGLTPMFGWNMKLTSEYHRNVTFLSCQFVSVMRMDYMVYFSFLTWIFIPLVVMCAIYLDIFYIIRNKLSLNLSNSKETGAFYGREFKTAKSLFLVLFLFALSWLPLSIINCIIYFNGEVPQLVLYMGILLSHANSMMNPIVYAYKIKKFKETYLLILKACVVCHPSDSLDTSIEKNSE
Procedure: 200 μL assay buffer (50 mM Tris–HCl, pH 8.0, 10 mM MgCl2, 1 mM EDTA and 0.01% CHAPS), 100 μL assay buffer containing the competing ligand (final concentration: 1 μM), and 100 μL of CHOhA3AR membrane fractions (100 μg protein) were combined and pre-incubated for 2 h at 25 °C while shaking. The ‘4× washed’ samples were centrifuged (5 min, 13,000 rpm, 4 °C), and the supernatant was removed. The resulting pellet was dissolved in 1 mL of assay buffer and incubated for 10 min at 25 °C while shaking. The ‘4× washed’ samples were then again centrifuged (2 min, 13,000 rpm, 4 °C), the supernatant was removed, and the resulting pellet was dissolved in 1 mL of assay buffer. The latter washing steps were repeated two times (four times washing total), and the final pellet was dissolved in 300 μL assay buffer. The radioligand (10 nM [^3H]PSB-11) in 100 μL of assay buffer was added to all samples, and the samples were incubated at 25 °C for 1 h. Nonspecific binding was determined in the presence of 100 μM NECA. Incubations were terminated by addition of 1 mL of ice-cold washing buffer (50 mM Tris–HCl, pH 8.0, 10 mM MgCl2, 1 mM EDTA) and rapid vacuum filtration through prewetted 96-well GF/B filter plates using a Brandel harvester. Filters were subsequently washed 5 times with ice-cold wash buffer. The plates were dried under vacuum, and a MicroscintTM-20 cocktail (PerkinElmer) was added subsequently. After 3 h, the filter-bound radioactivity was determined using a 2450 MicroBeta Microplate Counter (PerkinElmer).

hA2BAR = biological target: hA2BAR; design: method as in PMID 35395239; conditions: taken from previous experiments ref 71; read-out: KD at CHO-spap-hA2BAR membranes; cited from earlier work
hA1AR = biological target: T2, hA1AR (Homo sapiens, UniProt P30542); test: Full curve displacement assays on the hA1AR; assay type: binding; conditions: from full curve displacement assays (Table S1)
T2 construct: expressed in transfected cells; host or cells: CHO cells (CHOhA1AR), gift of Prof; S.J. Hill, University of Nottingham; membrane fractions
T2 sequence (P30542 1-326): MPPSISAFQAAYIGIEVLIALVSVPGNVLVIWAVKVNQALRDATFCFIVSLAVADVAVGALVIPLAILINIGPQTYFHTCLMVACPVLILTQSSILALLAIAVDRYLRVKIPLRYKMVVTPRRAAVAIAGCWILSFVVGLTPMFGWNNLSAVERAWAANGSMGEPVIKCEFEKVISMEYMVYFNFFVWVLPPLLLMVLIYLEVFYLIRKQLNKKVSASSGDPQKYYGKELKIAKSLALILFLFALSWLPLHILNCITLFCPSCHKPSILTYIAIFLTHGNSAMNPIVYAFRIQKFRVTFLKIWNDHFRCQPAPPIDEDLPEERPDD
Procedure: The affinity of the synthesized AfBPs was determined in radioligand binding experiments. First, single concentration displacement assays were carried out on all four human adenosine receptors, using a final probe concentration of 1 μM (Table 1). […] This quick screen indicated a good selectivity toward the hA3AR over the other human ARs, a trend that was also observed in the case of the parent compound.[34] Next, the ‘apparent’ affinities (depicted as pKi values) toward the hA3AR were determined using full curve displacement assays. To study the presumable covalent mode of action, the apparent affinity was determined with (pre-4 h) and without (pre-0 h) 4 h of pre-incubation of AfBP with hA3AR, prior to addition of radioligand. […] This difference in affinity was reflected in a shift in apparent pKi. […] To further investigate selectivity toward the hA3AR over the hA1AR, full curve displacement assays were carried out on the hA1AR.
(§1) […]. Single point displacement values shown are mean percentages of two individual experiments performed in duplicate. All pKi values shown are mean values ± SEM of three individual experiments performed in duplicate. Statistical analysis was performed using a one-way ANOVA test with multiple comparisons (****p < 0.0001).

hA3AR [2] = biological target: T1, hA3AR; test: Full curve radioligand displacement assay on the adenosine A3 receptor, [3H]PSB-11; assay type: binding; conditions: mean ± SEM, n=3
Procedure: Membrane aliquots containing 15 μg of protein (CHOhA3AR) were resuspended in assay buffer (50 mM Tris–HCl, pH 8.0, 10 mM MgCl2, 1 mM EDTA, 0.01% CHAPS). The competing ligand (concentrations ranging from 0.1 to 1000 nM) was added and pre-incubated with the membrane fractions for either 0 or 4 h. The radioligand (10 nM [^3H]PSB-11) was then added and incubated with the samples in a total volume of 100 μL of assay buffer for 30 min at 25 °C. Nonspecific binding was determined in the presence of 100 μM NECA. Incubations were terminated by rapid vacuum filtration through prewetted 96-well GF/C filter plates using a PerkinElmer Filtermate harvester. Filters were subsequently washed 12 times with ice-cold wash buffer (50 mM Tris–HCl, pH 8.0, 10 mM MgCl2, 1 mM EDTA). The plates were dried at 55 °C, and MicroscintTM-20 cocktail (PerkinElmer) was added subsequently. After 3 h, the filter-bound radioactivity was determined using a Tri-Carb 2810TR Liquid Scintillation Analyzer (PerkinElmer).
as §1

human A2AAR (hA2AAR) = biological target: T3, human A2AAR (hA2AAR) (Homo sapiens, UniProt P29274); test: Single-point radioligand displacement, [3H]ZM241385; assay type: binding; conditions: 1 μM probe; HEK293 cell membranes; co-incubated with radioligand 30 min at 25 °C; mean of two experiments
T3 construct: expressed in transfected cells; host or cells: HEK293 cells (HEKhA2AAR), gift of Dr. J. Wang, Biogen; membrane fractions
T3 sequence (P29274 whole entry): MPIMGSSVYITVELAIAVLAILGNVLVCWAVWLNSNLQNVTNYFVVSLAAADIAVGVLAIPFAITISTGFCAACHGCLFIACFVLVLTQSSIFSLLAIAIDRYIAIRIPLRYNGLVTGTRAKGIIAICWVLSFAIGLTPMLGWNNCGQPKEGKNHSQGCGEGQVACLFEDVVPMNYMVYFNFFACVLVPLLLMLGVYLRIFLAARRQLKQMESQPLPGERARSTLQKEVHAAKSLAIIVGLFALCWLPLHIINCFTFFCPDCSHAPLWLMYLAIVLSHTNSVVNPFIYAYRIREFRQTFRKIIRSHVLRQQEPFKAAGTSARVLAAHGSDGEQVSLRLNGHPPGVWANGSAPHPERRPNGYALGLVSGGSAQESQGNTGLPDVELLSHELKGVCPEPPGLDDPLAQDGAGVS
Procedure: (§2) Membrane aliquots containing 15 μg (CHOhA3AR), 5 μg (CHOhA1AR), or 30 μg (HEK293hA2AAR and CHO-spap-A2BAR) of protein were resuspended in assay buffer (A3AR: 50 mM Tris–HCl, pH 8.0, 10 mM MgCl2, 1 mM EDTA, 0.01% CHAPS; A1AR and A2AAR: 50 mM Tris–HCl, pH 7.4; A2BAR: 50 mM Tris–HCl, pH 7.4, 0.1% CHAPS). […] Nonspecific binding was determined in the presence of 100 μM NECA (A3AR), 100 μM CPA (A1AR), 100 μM NECA (A2AAR), and 10 μM ZM241385 (A2BAR). Incubations were terminated by rapid vacuum filtration to separate the bound and free radioligand through prewetted 96-well GF/C filter plates using a PerkinElmer Filtermate harvester. Filters were subsequently washed 12 times with ice-cold wash buffer (A3AR: 50 mM Tris–HCl, pH 8.0, 10 mM MgCl2, 1 mM EDTA; A1AR and A2AAR: 50 mM Tris–HCl, pH 7.4; A2BAR: 50 mM Tris–HCl, pH 7.4, 0.1% BSA). The plates were dried at 55 °C, and MicroscintTM-20 cocktail (PerkinElmer) was added subsequently.
(§3) Single point displacement values shown are mean percentages of two individual experiments performed in duplicate. All pKi values shown are mean values ± SEM of three individual experiments performed in duplicate.

hA3AR [3] = biological target: T1, hA3AR; test: Single-point radioligand displacement, [3H]PSB-11; assay type: binding; conditions: 1 μM probe; CHO cell membranes; co-incubated with radioligand 30 min at 25 °C; mean of two experiments
Procedure: as §2, §3

human A1AR (hA1AR) = biological target: T4, human A1AR (hA1AR) (Homo sapiens, UniProt P30542); test: Single-point radioligand displacement, [3H]DPCPX; assay type: binding; conditions: 1 μM probe; CHO cell membranes; co-incubated with radioligand 30 min at 25 °C; mean of two experiments
T4 construct: expressed in transfected cells; host or cells: CHO cells (CHOhA1AR), gift of Prof; S.J. Hill, University of Nottingham; membrane fractions
T4 sequence (P30542 1-326): T2 sequence (P30542 1-326)
Procedure: as §2, §3

human A2BAR (hA2BAR) = biological target: T5, human A2BAR (hA2BAR) (Homo sapiens, UniProt P29275); test: Single-point radioligand displacement, [3H]PSB-603; assay type: binding; conditions: 1 μM probe; CHO-spap cell membranes; co-incubated with radioligand 30 min at 25 °C; mean of two experiments
T5 construct: expressed in transfected cells; host or cells: CHO-spap cells (CHO-spap-hA2BAR), gift of S.J. Dowell, GlaxoSmithKline; membrane fractions
T5 sequence (P29275 1-332): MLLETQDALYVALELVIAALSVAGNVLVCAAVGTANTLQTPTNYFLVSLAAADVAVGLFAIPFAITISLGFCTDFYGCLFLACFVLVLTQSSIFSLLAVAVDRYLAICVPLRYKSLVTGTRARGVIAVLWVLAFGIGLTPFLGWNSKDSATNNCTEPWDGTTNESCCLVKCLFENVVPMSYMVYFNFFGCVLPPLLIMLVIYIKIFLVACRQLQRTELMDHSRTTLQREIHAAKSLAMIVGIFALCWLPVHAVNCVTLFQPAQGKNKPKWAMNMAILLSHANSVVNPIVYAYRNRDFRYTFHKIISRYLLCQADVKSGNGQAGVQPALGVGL
Procedure: as §2, §3

- binding to hA3AR after wash-out ([3H]PSB-11 binding recovery) (hA3AR [1]): full recovery of radioligand binding
Structure (SMILES): CCCn1c(=O)c2c(nc3cc(OC)ccn32)n(CCCNC(=O)c2ccc(S(C)(=O)=O)cc2)c1=O [LUF7714, reference compound]

Structure (SMILES): CCCn1c(=O)[nH]c2nc(-c3ccc(S(=O)(=O)N4CCN(c5ccc(Cl)cc5)CC4)cc3)[nH]c2c1=O [[^3H]PSB603]
- Kd (hA2BAR): 1.7 nM

- selectivity toward the hA3AR over the hA1AR (hA1AR): > 7 fold
Structure (SMILES): COc1ccn2c(c1)nc1c2c(=O)[nH]c(=O)n1CCCNC(=O)OC(C)(C)C [compound 11, tert-Butyl-(3-(8-methoxy-2,4-dioxo-3,4-dihydropyrido[2,1-f]purin-1(2H)-yl)propyl)carbamate]

Structure (SMILES): C#CCn1c(=O)c2c(nc3cc(OC)ccn32)n(CCCNC(=O)c2ccc(S(=O)(=O)F)cc2)c1=O [compound 13, 4-((3-(8-Methoxy-2,4-dioxo-3-(prop-2-yn-1-yl)-3,4-dihydropyrido[2,1-f]purin-1(2H)-yl)propyl)carbamoyl)benzenesulfonyl fluoride]
- binding to hA3AR after wash-out ([3H]PSB-11 binding recovery) (hA3AR [1]): persistent binding
- apparent pKi (pre-0 h) (hA3AR [2]; CHO-hA3AR membranes, 25 °C, 0.5 h co-incubation of probe and radioligand, no pre-incubation): 7.17 ± 0.04
- apparent pKi (pre-4 h) (hA3AR [2]; CHO-hA3AR membranes, 25 °C, 4 h pre-incubation with probe then 0.5 h co-incubation with radioligand): 8.38 ± 0.05 ^d
- fold change, ratio Ki(0 h)/Ki(4 h) (hA3AR [2]; hA3AR): 16.6 ± 3.5
- % specific [3H]ZM241385 displacement, hA2AAR (human A2AAR (hA2AAR)): 8%
- % specific [3H]PSB-11 displacement, hA3AR (hA3AR [3]): 92%
- % specific [3H]DPCPX displacement, hA1AR (human A1AR (hA1AR)): 25%
- % specific [3H]PSB-603 displacement, hA2BAR (human A2BAR (hA2BAR)): 5%
